Experimental data: patent publication US20230130823A1, “PROCESS FOR THE PRODUCTION OF ANTITUMOUR PHARMACEUTICAL COMPOSITIONS USING PUSH-PULL BUTADIENES, COMPOUNDS AND USES THEREOF” (ANHANGUERA EDUCACIONAL PARTICIPAÇÕES S/A, priority 2019, published 2023)
pIC50: −log10 of the molar value. Converted amounts (≈) assume the structure as drawn. “And” between values parts separate entries of the source, which are not always exact repeats. Equal entries are not always repeated.

Tests used:
[1] = system: lines of human carcinoma tested; assay: In vitro cytotoxicity against the panel of human carcinoma lines; conditions: tumor cell lines of human carcinoma tested
tumor cells line Colo205 = assay: Colo205 cell count; assay type: cell-based; conditions: compared to cells treated with culture medium only
Procedure: The compounds were tested for their ability to reduce the number of cells in the tumor, compared to cells treated with culture medium only. In Table 4, the results obtained are shown.

Colo205 [2] = assay: Determination of apoptotic cells (subG1), Colo205, flow cytometry; assay type: cell-based; conditions: sub-diploid DNA content
Excerpt: Determination of Apoptotic Cells (subG1)-Colo205
In this experiment, the proportion of apoptotic cells was identified, that is, cells showing DNA content below normal (sub-diploid) in flow cytometry testing.

Colo205 [3] = assay: Analysis of the cell cycle phases, Colo205; assay type: cell-based; conditions: for Cell cycle phase (%) G2M: G2/M phase
Excerpt: The compounds of this family were also studied for the distribution of the population of tumor cells in the different phases of the cell cycle: quiescent cells, non-proliferating (G1/G0 phase), which present DNA/RNA synthesis capacity (S phase) and cell division cells (G2/M phase).

CaCo2 = assay: In vitro cytotoxicity, CaCo2 colon line; assay type: cell-based; conditions: Homo sapiens, Caco-2; CaCo2, colon; read-out: IC50
HT-29 = assay: In vitro cytotoxicity, HT-29 colon line; assay type: cell-based; conditions: Homo sapiens; HT-29, colon; read-out: IC50
Colo205 [4] = assay: In vitro cytotoxicity, Colo205 colon line; assay type: cell-based; conditions: Homo sapiens, COLO 205; Colo205, colon; read-out: IC50
SW620 = assay: In vitro cytotoxicity, SW620 colon line; assay type: cell-based; conditions: Homo sapiens, SW-620; SW620, colon; read-out: IC50
CRO2B = assay: In vitro cytotoxicity, CRO2B carcinoid line; assay type: cell-based; conditions: Homo sapiens, carcinoid, read-out: IC50
MIAP2 = assay: In vitro cytotoxicity, MIAP2 pancreas line; assay type: cell-based; conditions: Homo sapiens; MIAP2, pancreas; read-out: IC50
BxPC3 = assay: In vitro cytotoxicity, BxPC3 pancreas line; assay type: cell-based; conditions: Homo sapiens, BXPC-3; BxPC3, pancreas; read-out: IC50
PANC1 = assay: In vitro cytotoxicity, PANC1 pancreas line; assay type: cell-based; conditions: Homo sapiens, PANC-1; PANC1, pancreas; read-out: IC50
[5] = system: 4T1 (murine mammary carcinoma); assay: Cytotoxicity, 4T1 cells; assay type: cell-based; conditions: Mus musculus, read-out: CI50% tumor cells
[6] = system: MCF-7 (human mammary adenocarcinoma); assay: Cytotoxicity, MCF-7 cells; assay type: cell-based; conditions: MCF7, read-out: CI50% tumor cells
[7] = system: SCC9 (squamous-cell carcinoma of the oral cavity); assay: Cytotoxicity, SCC9 cells; assay type: cell-based; conditions: Homo sapiens, SCC-9, read-out: CI50% tumor cells
[8] = system: HUVEC (Normal human endothelial cell); assay: Cytotoxicity, HUVEC normal cells
[9] = system: murine melanoma cells B16F10; assay: MTT cytotoxicity in B16F10 melanoma cells; assay type: cell-based; conditions: for IC50: Mus musculus, B16-F10, B16F10 melanoma, 24 hours of culture, MTT, read-out: CI50% (the source's name)
Procedure: The tumor line of murine melanoma B16F10 was donated by the Ludwig-Switzerland Institute. Adherent cell suspensions of B16F10 cells were obtained for all experimental procedures by treating culture flasks with trypsin 0.2% for 5 minutes and inactivated with 10% fetal bovine serum. The detached cells were centrifuged twice, resuspended in supplemented RPMI-1640 medium. The count was performed in Malassez chamber, and the cell concentration was adjusted in 5×10^5 cells/ml, in RPMI-1640 culture medium supplemented with 10% fetal bovine serum and 7 ug polymyxin-B (Sigma Chemical Company, St Louis Mo.-USA).
Cell viability was determined by the Trypan Blue exclusion test, being greater than 95% of viable cells. The cells were grown in plates with 96 well plate flat bottoms (Corning), at a concentration of 2×10^5 cells, maintained for 24 hours in a CO2 oven at 37° C. After this period, the plates were centrifuged for 5 minutes, at 2000 rpm at 4° C., the supernatant discarded and added different concentrations of the compounds, diluted in RPMI-1640 culture medium, supplemented and increased by 7 μg of Polymyxin-B (Sigma Chemical Company). After treatment with the various diluted compounds in complete culture medium, the cells were incubated with 0.5 mg/mL of MTT reactive.
The cell viability test was performed to verify the effect of the various compounds on the various concentrations previously established: on the lines of tumor cells B16F10 and normal human fibroblasts. The MTT method consists of a cell viability test that measures the activity of mitochondrial dehydrogenase. MTT is a colorimetric method based on the capacity of living cells to reduce salt 3-(4,5-di-methylazole-2-IL)-2,5-diphenyl tetrazolium bromide in the formazan product (Mosmann, 1983). After the cells plating (concentration of 1×10^4 per well of the culture plate) in RPMI-1640 medium and 10% SFB medium, they were maintained at 37° C. for periods of 24, 48, 72 and 96 hours. Four hours before the set time was completed, MTT 20 μL (Sigma) was added (final concentration of […]). The plates were kept in the oven for the remaining four hours. After the stipulated time, 180 μL of the supernatant were removed from each well and then added 150 μL of dimethyl sulfoxide (Sigma) homogenizing well for the complete dissolution of the salt crystals formed by the mitochondrial metabolism resulting in a staining.
The 96-well plate was read by the spectrophotometer (Spectra MAX-190) using the wavelength of 570 nm. The results were analyzed by absorbance of each well. The percentage of viability was obtained using the following formula: [(Absorbance of treated cells/Absorbance of untreated cells)×100]. The experiments were carried out in quadruplicate.
The samples of the compounds obtained by synthesis chemistry were diluted in DMSO solution at the final concentration of 10%.

In the case of `CC(=O)c1ccccc1C(=O)Oc1ccccc1` [Compound 4, 2-Acetyl Benzoate of Phenyl], the “cytotoxic activity (in words)” value [1] was “inactive”.

For `O=CC=C(Cl)c1ccc(OC(=O)c2ccccc2)cc1OC(=O)c1ccccc1` [Compound 27, 3-Chloro-3-(2,4-benzoyloxy-phenyl)propenal], the “Relative number of cells (% ± standard deviation)” value (tumor cells line Colo205) was 32.3 ± 1.017%, the “Percentage of cells (apoptotic, subG1)” value (Colo205 [2]) was 18.0 ± 0.354% and the “Cell cycle phase (%) G1/G0” value (Colo205 [3]) was 54.2 ± 0.35%. The “Cell cycle phase (%) G2M” value (Colo205 [3]) was 12.4 ± 0.63% and the “Cell cycle phase (%) S” value (Colo205 [3]) was 33.4 ± 0.21%.

`CCSC(=CC(=C(C#N)C#N)c1ccc(OCC=C(C)C)cc1)SCC` [Compound 3] showed a pIC50 (CaCo2) of 5.09, a pIC50 (HT-29) of 5.41 and a pIC50 (Colo205 [4]) of 4.84. For the same molecule, the pIC50 (SW620) was 4.93, the pIC50 (CRO2B) was 5.19 and the pIC50 (MIAP2) was 5.41. For the same molecule, the pIC50 (BxPC3) was 4.62, the pIC50 (PANC1) was 4.30 and the “cytotoxic activity (in words)” value [1] was “potent cytotoxic activity”.

In the case of `CC(=O)c1ccc(OCC=C(C)C)cc1` [Compound 1, 4-(3-methylbut-2-enyl-oxyi)acetophenone], the pIC50 (CaCo2) was 3.12, the pIC50 (HT-29) was 3.34 and the pIC50 (Colo205 [4]) was 2.99. The pIC50 (SW620) was 3.01, the pIC50 (CRO2B) was 3.18 and the pIC50 (MIAP2) was 3.08. The pIC50 (BxPC3) was 3.14, the pIC50 (PANC1) was 3.12 and the “Relative number of cells (% ± standard deviation)” value (tumor cells line Colo205) was 70.2 ± 0.339%. The “Percentage of cells (apoptotic, subG1)” value (Colo205 [2]) was 5.2 ± 0.566%, the “Cell cycle phase (%) G1/G0” value (Colo205 [3]) was 48.0 ± 2.54% and the “Cell cycle phase (%) G2M” value (Colo205 [3]) was 5.0 ± 2.26%. The “Cell cycle phase (%) S” value (Colo205 [3]) was 47.0 ± 0.28% and the “cytotoxic activity (in words)” value [1] was “showed no cytotoxic activity”.

Molecule `COc1ccc(C(=O)/C(C#N)=C/C=C(\Cl)c2ccc(I)cc2)cc1OC` [Compound 21, 5-chloro-2-(3,4-dimethoxy-benzoyl)-5-(4-iodine-phenyl)-penta-2,4-dienonitrile] has a pIC50 [5] of 5.19, a pIC50 [6] of 6.53 and a pIC50 [7] of 6.07. For the same molecule, the CI50% Normal cells [8] was 16.4 µM.

For `COc1cc(/C=C/C(=O)/C=C/C=C(Cl)/C=C/c2ccc(OC)c(OC)c2)ccc1O` [Compound 29, (1E,4E,6Z,8E)-7-chloro-1-(4-hydroxy-3-methoxyphenyl)-9-(3,4-dimethoxyphenyl)nona-1,4,6,8-tetraen-3-ona], the pIC50 [5] was 5.08, the pIC50 [6] was 6.15 and the pIC50 [7] was 5.04.

`N#CC(C#N)=C/C=C(\Cl)c1ccc(OC(=O)c2ccccc2)cc1` [Compound 14, 4-(1-chloro-4,4-dicyano-buta-1,3-dienyl)phenyl Benzoate] gave an IC50 [9] of 168 µg/mL (≈ 503 µM).

For `O=C(Oc1ccc(/C(Cl)=C/C=C/[N+](=O)[O-])cc1)c1ccccc1` [Compound 16, 4-(1-chloro-4-nitro-buta-1,3-dienyl)phenyl Benzoate], the IC50 [9] was 34.9 µg/mL and 106 µM.

For `CC(=O)C(=C/C=C(\Cl)c1ccc(I)cc1)C(C)=O` [Compound 18, 3-acetyl-6-chloro-6-(4-iodophenyl)-hexa-3,5-diene-2-ona], the times more active ([9]; compared with the acetylacetone-derived benzoate isomers) was roughly 7 times, the pIC50 [5] was 5.43 and the pIC50 [6] was 6.18. For the same molecule, the pIC50 [7] was 4.96.

`CC(C)=CCOc1ccc(C(C)=C(C#N)C#N)cc1` [Compound 2] showed a pIC50 (CaCo2) of 3.79, a pIC50 (HT-29) of 4.04 and a pIC50 (Colo205 [4]) of 3.83. The pIC50 (SW620) was 3.87, the pIC50 (CRO2B) was 3.83 and the pIC50 (MIAP2) was 3.81. The pIC50 (BxPC3) was 3.80, the pIC50 (PANC1) was 3.75 and the “Relative number of cells (% ± standard deviation)” value (tumor cells line Colo205) was 12.7 ± 0.339%. The “Percentage of cells (apoptotic, subG1)” value (Colo205 [2]) was 35.7 ± 1.485%, the “Cell cycle phase (%) G1/G0” value (Colo205 [3]) was 90.0 ± 0.91% and the “Cell cycle phase (%) G2M” value (Colo205 [3]) was 0.8 ± 0.42%. For the same molecule, the “Cell cycle phase (%) S” value (Colo205 [3]) was 9.15 ± 0.49% and the “cytotoxic activity (in words)” value [1] was “exhibited a better cytotoxic activity”.

For `O=C(Oc1ccccc1/C(Cl)=C/C=C/[N+](=O)[O-])c1ccccc1` [Compound 7, 2-(1-chloro-4-nitro-buta-1,3-dienyl)phenyl Benzoate], the “activity relative to compound 6” value ([9]; B16F10, compared with compound 6) was “almost ten times more active”, the IC50 [9] was 3.27 µg/mL and 9.93 µM and the “cytotoxic activity (in words)” value [1] was “little antitumor activity”.
